Test results as given in ChEMBL document CHEMBL1201862, “PubChem BioAssay data set” (2004).
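Test compounds were applied to cells in 96-well plates for 48 hours at 5 doses. GI50 is the concentration that inhibits growth by half.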 Calls of active or inactive are those of the source. Cut-off read from the data, not from the text of the source: active = GI50 up to about 1.1 µM and inactive = higher.

How the values were obtained:
Assay in all cases: inhibition of tumour cell growth, NCI panel, 48 h
[1] = tested on: HCT-116
[2] = tested on: SF-268
[3] = tested on: LOX IMVI
[4] = tested on: UO-31
[5] = tested on: NCI-H23
[6] = tested on: 786-0
[7] = tested on: SF-295
[8] = tested on: SK-MEL-28
[9] = tested on: MDA-MB-435
[10] = tested on: ACHN
[11] = tested on: HOP-62
[12] = tested on: SNB-75
[13] = tested on: SK-OV-3
[14] = tested on: TK-10
[15] = tested on: CCRF-CEM
[16] = tested on: HOP-92
[17] = tested on: NCI-H522
[18] = tested on: RPMI-8226
[19] = tested on: RXF 393
[20] = tested on: COLO 205

Measured: GI50

CN1CCN(CCCN2c3ccccc3Sc3ccc(C(F)(F)F)cc32)CC1
inactive: [1] 8.04 µM | [2] 12.4 µM | [3] 4.57 µM | [4] 5.21 µM | [5] 14.4 µM | [6] 7.93 µM | [7] 9.89 µM | [8] 1.82 µM | [9] 3.35 µM | [10] 11.9 µM | [11] 13.1 µM | [12] 7.24 µM | [13] 14.6 µM

Cc1ccc(S[C@@H](C)[C@@](O)(CF)CN(Cc2ccccc2)C(=O)C(F)(F)F)cc1
inactive: [1] 11.4 µM | [14] 35.2 µM | [2] 33.2 µM | [3] 40.3 µM | [4] 16.6 µM | [15] 11 µM | [16] 4.65 µM | [5] 18.4 µM | [6] 16.7 µM | [8] > 100 µM | [9] 19.6 µM | [10] 22.1 µM | [17] > 100 µM

CCOC(=O)Nc1cc(NC(/C=N/NC(C)=O)C(=O)OCC)c(OC)cc1NC(C)=O (centres undefined)
inactive: [1] > 100 µM | [14] > 100 µM | [2] > 100 µM | [4] > 100 µM | [15] > 100 µM | [16] > 100 µM | [5] > 100 µM | [6] > 100 µM | [18] > 100 µM | [19] > 100 µM | [7] > 100 µM | [8] > 100 µM | [9] > 100 µM | [10] > 100 µM | [11] > 100 µM | [12] > 100 µM | [13] > 100 µM | [20] > 100 µM

Cc1ccc(C)c(NC(=O)C(=O)CC(=O)c2cccc3ccccc23)c1
inactive: [1] > 100 µM | [14] > 100 µM | [2] > 100 µM | [3] > 100 µM | [4] > 100 µM | [15] > 100 µM | [16] > 100 µM | [5] > 100 µM | [6] > 100 µM | [18] > 100 µM | [19] > 100 µM | [7] > 100 µM | [8] > 100 µM | [10] > 100 µM | [11] > 100 µM | [17] > 100 µM | [12] > 100 µM | [13] > 100 µM | [20] > 100 µM

COC(=O)c1nsc(OC)c1Cl
inactive: [1] > 100 µM | [14] > 100 µM | [2] > 100 µM | [3] > 100 µM | [4] > 100 µM | [15] > 100 µM | [5] > 100 µM | [6] > 100 µM | [18] > 100 µM | [19] > 100 µM | [7] > 100 µM | [8] > 100 µM | [9] > 100 µM | [11] > 100 µM | [12] > 100 µM | [13] > 100 µM | [20] > 100 µM

CCC1OC2C(CC=C(C)C)=C3OC(C)(O)C(C)(CC)C(=O)C3=C3OC(=O)C=C1C32 (centres undefined)
inactive: [1] 15.5 µM | [14] 46.5 µM | [2] 38.6 µM | [3] 12.3 µM | [4] 15.3 µM | [15] 29.7 µM | [16] 21.7 µM | [5] 28.4 µM | [6] 25.4 µM | [18] 19.2 µM | [7] 47 µM | [8] 27.6 µM | [9] 31.4 µM | [10] 26.3 µM | [13] > 100 µM | [20] 20.5 µM

C=C(C)C1CCC2=CC(CC3(C)OC3C3=CC(C(=O)OC)=C(C1)O3)OC2=O (centres undefined)
inactive: [1] > 100 µM | [14] > 100 µM | [2] > 100 µM | [3] > 100 µM | [4] > 100 µM | [15] 83.2 µM | [16] 88.3 µM | [5] > 100 µM | [6] > 100 µM | [19] 52.5 µM | [7] > 100 µM | [8] > 100 µM | [9] > 100 µM | [10] > 100 µM | [11] > 100 µM | [17] 85.9 µM | [12] 56.2 µM

Cc1nc(-[n+]2nc(-c3ccncc3)nn2-c2ccccc2)sc1C
inactive: [1] 13.4 µM | [14] 21.8 µM | [2] 21.4 µM | [3] 2.69 µM | [4] 7.73 µM | [15] 17.5 µM | [5] 57.9 µM | [6] 19.1 µM | [18] 68.1 µM | [19] 18.7 µM | [7] 9.93 µM | [8] 34.5 µM | [9] 23.4 µM | [10] 4.8 µM | [11] 7.96 µM | [17] 3.15 µM | [12] 42.9 µM | [13] 21.2 µM | [20] 34.4 µM

CCCc1c(OC)c(=O)c2c(OC)cc(OC)c3c4c(OC)cc(OC)c5c(=O)c(OC)c(CCC)c(c1c23)c54
inactive: [1] 13.8 µM | [14] 21 µM | [2] 16.1 µM | [3] 7.4 µM | [4] 15.5 µM | [16] 10.9 µM | [5] 14.9 µM | [6] 13.1 µM | [19] 20.7 µM | [7] 17.8 µM | [8] 13.4 µM | [9] 16 µM | [10] 15.8 µM | [11] 18 µM | [12] 7.23 µM | [13] 15.5 µM | [20] 8.47 µM

Cc1cc(C)c2c(=O)n(CN3CCC(C#N)(c4ccccc4)CC3)sc2n1
inactive: [1] > 100 µM | [14] 25.6 µM | [2] 40 µM | [3] 26.2 µM | [4] 17.8 µM | [15] 20.3 µM | [16] 88.1 µM | [5] 34.4 µM | [6] 22.7 µM | [19] 26.3 µM | [7] > 100 µM | [8] 42.5 µM | [9] 24.4 µM | [10] 21.7 µM | [11] 44.1 µM | [17] 14.3 µM | [12] 37.7 µM | [13] > 100 µM | [20] 30.8 µM

O=C1C[C@H]2[C@@H](O1)[C@@H](O)CN1C(=O)c3ccccc3[C@H]21
inactive: [1] > 100 µM | [14] > 100 µM | [2] > 100 µM | [3] > 100 µM | [4] > 100 µM | [15] > 100 µM | [5] > 100 µM | [6] > 100 µM | [18] > 100 µM | [19] > 100 µM | [7] > 100 µM | [8] > 100 µM | [9] > 100 µM | [10] > 100 µM | [11] > 100 µM | [17] > 100 µM | [12] > 100 µM | [13] > 100 µM | [20] > 100 µM

Cc1cccc(N/C(=C(/C(Cl)=C(Cl)Cl)[N+](=O)[O-])n2nnc3ccccc32)c1
inactive: [1] 18.9 µM | [2] 15.9 µM | [4] 16.5 µM | [15] 2.96 µM | [5] 16.8 µM | [6] 19.5 µM | [18] 13.7 µM | [7] 16.9 µM | [8] 14.9 µM | [9] 20.4 µM | [10] 24.3 µM | [11] 18 µM | [13] 21.3 µM | [20] 17.1 µM

CCN(CC)/C(SCc1ccccc1)=C(\C(Cl)=C(Cl)Cl)[N+](=O)[O-]
inactive: [1] 14.7 µM | [14] 19.2 µM | [2] 18.4 µM | [3] 14.1 µM | [4] 18.3 µM | [15] 12.5 µM | [5] 17.8 µM | [6] 16 µM | [18] 14.9 µM | [19] 13.1 µM | [7] 36.1 µM | [8] 15.9 µM | [9] 17.7 µM | [10] 16.3 µM | [11] 22 µM | [17] 16.6 µM | [13] 39.6 µM | [20] 17.6 µM

COC(=O)c1ccc(C)cc1CC1Cc2cc(C)ccc2C1=O (centres undefined)
inactive: [1] > 100 µM | [14] > 100 µM | [2] > 100 µM | [3] > 100 µM | [4] > 100 µM | [15] > 100 µM | [5] > 100 µM | [6] > 100 µM | [18] > 100 µM | [7] > 100 µM | [8] > 100 µM | [9] > 100 µM | [10] > 100 µM | [11] > 100 µM | [17] > 100 µM | [12] > 100 µM | [13] > 100 µM | [20] > 100 µM

CCOC(=O)c1c(O)cc(=O)[nH]c1N1CCOCC1
inactive: [1] > 100 µM | [3] > 100 µM | [4] > 100 µM | [15] > 100 µM | [16] > 100 µM | [5] > 100 µM | [6] > 100 µM | [18] > 100 µM | [7] > 100 µM | [8] > 100 µM | [9] > 100 µM | [10] > 100 µM | [11] > 100 µM | [12] > 100 µM | [13] > 100 µM | [20] > 100 µM

Cc1ncc([N+](=O)[O-])n1CCNC(=O)Cn1ccnc1[N+](=O)[O-]
inactive: [1] > 100 µM | [14] > 100 µM | [2] > 100 µM | [4] > 100 µM | [15] > 100 µM | [5] > 100 µM | [6] > 100 µM | [7] > 100 µM | [8] > 100 µM | [9] > 100 µM | [10] > 100 µM | [11] > 100 µM | [17] > 100 µM | [12] > 100 µM | [13] > 100 µM | [20] > 100 µM
